Data from paper PMC11292009, “Mapping protein binding sites by photoreactive fragment pharmacophores” (Communications Chemistry, 2024).

Assays:
Type in all cases: binding
STAT5B-NTD [1] = test system: T1, STAT5B-NTD; experiment: Intact MS photoaffinity labeling screen, STAT5B-NTD (365 nm, UHPLC-MS); conditions: for experimental hit status STAT5B-NTD: 0/1 flag; for MS labeling percentage, STAT5B: STAT5B-NTD, 365 nm 10 min, no photocatalyst; for STAT5B-NTD (experimental hit status): hit flag 1/0, sheet PhP, photoaffinity labeling screen;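 as to MS labeling percentage, STAT5B: 0.17 µL of 100 mM DMSO fragment stock added to the protein sample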
T1 construct: His-SUMO (N, cleaved yes); made in house; host or cells: E. coli BL21 RILP
Method: STAT5B protein in 7 µM concentration in pH 7.4 PBS buffer was pre-incubated with 0.17 µL PhP (in 100 mM DMSO solution) for 1 h at room temperature in dark. Irradiation was carried out at 4 °C for 10 min using 365 nm UV lamp.
(§1) During the analysis, the column temperature was maintained at a constant 60 °C, and a sample volume of 3 µL was injected for each analysis. Data acquisition was conducted in positive ion mode within the m/z 100–2000 (mass-to-charge ratio) range. For the full protocol and spectra of the hits, see Supplementary Note 2.

[2] = test system: carbonic anhydrase II (CA); experiment: Intact protein MS photoaffinity labeling screen, carbonic anhydrase; conditions: intact protein MS after 10 min irradiation
Method: (§2) Using a plate-based format with one fragment per well, each fragment was incubated with the target proteins for 15 min to allow for the formation of non-covalent interactions. […] Finally, the results were directly analyzed from the plate using intact protein mass spectrometry by observing the mass additions that correspond to successful labeling (Fig. 2c, for labeling % values see Supplementary data). The library was first characterized against three benchmark proteins like carbonic anhydrase (CA), lysozyme (Lyo), and myoglobin (Myo).

KRas^G12D = test system: T2, KRas^G12D; experiment: Intact MS photoaffinity labeling screen, KRas G12D (302 nm, LCMS-TOF); conditions: for experimental hit status KRAS-G12D: 0/1 flag; for MS labeling percentage, KRas: KRas G12D, 302 nm 10 min; for KRAS-G12D (experimental hit status): hit flag 1/0, sheet PhP, photoaffinity labeling screen
T2 construct: purchased GSK/GenScript
Method: as §2
(§3) The PhP library was screened against BRD4-BD1 and KRas^G12D as follows. […] The probe plate was placed on ice. 15 μL of protein stock solution (1 μM BRD4-BD1 (GSK/GenScript) or KRas^G12D (GSK/GenScript) in PBS buffer) was dispensed into wells containing fragments. The plate was left on ice for 15 min for incubation, then irradiated at 302 nm for 10 min, and centrifuged (1000 rpm, 1 min) to remove any bubbles. […] The deconvoluted spectra were analyzed using R Studio software.

BRD4-BD1 = test system: T3, BRD4-BD1; experiment: Intact MS photoaffinity labeling screen, BRD4-BD1 (302 nm, LCMS-TOF); conditions: for experimental hit status BRD4-BD1: 0/1 flag; for MS labeling percentage, BRD4: BRD4-BD1, 302 nm 10 min; for BRD4-BD1 (experimental hit status): hit flag 1/0, sheet PhP, photoaffinity labeling screen
T3 construct: screened the PhP library against the first bromodomain of BRD4 (BRD4-BD1); purchased GSK/GenScript
Method: as §2, §3

STAT5B-NTD [3] = test system: T1, STAT5B-NTD; experiment: Intact MS labeling screen, STAT5B-NTD conjugated with photocatalyst Ir-G2-PEG3-COOH (450 nm); conditions: 450 nm 10 min;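 also: 0.14 µL of 100 mM DMSO fragment stock added to the conjugate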
Method: For the photocatalysis experiments, 1.4 µL photocatalyst (in 1.4 mM DMSO solution, 10 eq) was pre-incubated with 1.5 µL coupling reagent (0.75 µL, 5.6 mM EDC (20 eq)+0.75 µL 4.2 mM NHS and 1.5 µL 2.1 mM (15 eq) BOP for 30 min in dark. 30 µL STAT5B-NTD (in 7 µM concentration) was added and incubated further at room temperature overnight or at 37 °C for 1 h in dark. After addition of 0.14 µL PhP (in 100 mM DMSO) the solution was further incubated in dark for 1 h. Irradiation was carried out using 450 nm LED lamp (7.6Vx0A) for 10 min at 4 °C.
as §1

myoglobin (Myo) = experiment: Intact protein MS photoaffinity labeling screen, myoglobin; conditions: intact protein MS after 10 min irradiation
Method: as §2

lysozyme (Lyo) = experiment: Intact protein MS photoaffinity labeling screen, lysozyme; conditions: intact protein MS after 10 min irradiation
Method: as §2

SMILES	experimental hit status STAT5B-NTD (STAT5B-NTD [1])	MS labeling percentage, STAT5B (STAT5B-NTD [1]) [%]	MS labeling percentage, CA [2] [%]	experimental hit status KRAS-G12D (KRas^G12D)	MS labeling percentage, KRas (KRas^G12D) [%]	experimental hit status BRD4-BD1 (BRD4-BD1)	MS labeling percentage, BRD4 (BRD4-BD1) [%]	MS labeling percentage, STAT5B+photocat (STAT5B-NTD [3]) [%]	MS labeling percentage, Myo (myoglobin (Myo)) [%]	MS labeling percentage, Lyo (lysozyme (Lyo)) [%]	STAT5B-NTD (experimental hit status) (STAT5B-NTD [1])	KRAS-G12D (experimental hit status) (KRas^G12D)	BRD4-BD1 (experimental hit status) (BRD4-BD1)
Cc1ccc2[nH]c(CNC(=O)CCC3(C)N=N3)nc2c1 [PhP030, c1cc(C)cc(c12)nc([nH]2)CNC(=O)CCC3(C)N=N3]	0	0	0.7	0	1.4	0	1.2	0.7	0.4	0	–	–	–
CC1(CCC(=O)NCCc2nc3ccccc3[nH]2)N=N1 [PhP031, N1=NC1(C)CCC(=O)NCCc(n2)[nH]c(c23)cccc3]	0	1	0.6	0	0.4	0	0.8	0.5	0.3	0	–	–	–
CCC(NC(=O)CCC1(C)N=N1)c1ccccc1OC (centres unmarked) [PhP032, N1=NC1(C)CCC(=O)NC(CC)c2ccccc2OC]	0	2.9	0.2	0	0	0	0.3	1.9	0.3	0	–	–	–
CC1(CCC(=O)NCc2ccc(-n3ccnc3)cc2)N=N1 [PhP033, N1=NC1(C)CCC(=O)NCc2ccc(cc2)-n3ccnc3]	0	1	0.5	0	0.5	0	1.1	0.3	0.3	0	–	–	–
COC(=O)[C@@H](Cc1c[nH]c2ccccc12)NC(=O)CCC1(C)N=N1 [PhP036, N1=NC1(C)CCC(=O)N[C@@H](C(=O)OC)Cc(c[nH]2)c(c23)cccc3]	0	2	0.2	0	1	0	0.6	5.4	0	0.4	–	–	–
COc1ccc(CNC(=O)CCC2(C)N=N2)cn1 [PhP039, COc1ccc(cn1)CNC(=O)CCC2(C)N=N2]	–	1	0.5	–	0.2	–	0.5	1.3	0.3	0	0	0	0
Cc1nc(NC(=O)CCC2(C)N=N2)c2cnn(-c3ccc(F)cc3)c2n1 [PhP041, c1cc(F)ccc1-n(nc2)c(c23)nc(C)nc3NC(=O)CCC4(C)N=N4]	–	0	0.3	–	0.3	–	0.2	10.6	0	0	0	0	0
CC1(CCC(=O)Nc2cccc(-n3cnnn3)c2)N=N1 [PhP042, N1=NC1(C)CCC(=O)Nc2cccc(c2)-n3cnnn3]	–	2	0.9	–	0.5	–	1	17.8	0.2	0	0	0	0
Cn1ccnc1-c1cc(NC(=O)CCC2(C)N=N2)n[nH]1 [PhP043, Cn1ccnc1-c2cc(n[nH]2)NC(=O)CCC3(C)N=N3]	–	1	0.5	–	0.3	–	0.8	0	0.1	0	0	0	0
COc1ccccc1OCCNC(=O)CCC1(C)N=N1 [PhP044, COc1ccccc1OCCNC(=O)CCC2(C)N=N2]	–	1	0.2	–	0	–	0.2	1.4	0	0	0	0	0
CC1(CCC(=O)NCC(C)(C)NS(C)(=O)=O)N=N1 [PhP045, CS(=O)(=O)NC(C)(C)CNC(=O)CCC1(C)N=N1]	–	0	0.5	–	0.2	–	0.4	2.3	0.2	0	0	0	0
